The source of these data is PubChem BioAssay (NCI).

SMILES strings stand for the structures. Several values for one entry are separate records, joined by “and”; a condition that tells them apart may be missing. Identical values can stand only once.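 Interpolation was linear, between the two tested concentrations surrounding the appropriate level; five concentrations were tested over 48 hours in 96-well plates. GI50: concentration for 50% inhibition of growth. Definition used: TGI = concentration required for complete inhibition of growth.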 Some results are limits rather than exact numbers.

Assay in all cases: inhibition of tumour cell growth, NCI panel, 48 h
In test [1] the test system is T-47D breast.
Test [2] has as its system MDA-MB-231 breast.
The subject of test [3] is NCI/ADR-RES ovarian.
Test [4] has as its system DU-145 prostate.
For test [5], the system named is PC-3 prostate.
For test [6], the system named is MDA-MB-435.
In test [7] the test system is HS 578T breast.
Test [8] deals with DMS 273 small cell lung.
Test [9] has as its system DLD-1 colon.

With `O=C(O)c1c(Cl)c(Cl)c(Cl)c(Cl)c1-c1c2cc(I)c(=O)c(I)c-2oc2c(I)c(O)c(I)cc12`, the GI50 is 29.4 µM in test [1]; 22.5 µM and 26.7 µM in [2]; over 200 µM in test [3]; 37.2 µM in test [4]; 39.8 µM and 42.3 µM in test [5]; 62.9 µM and 41.4 µM in [6]. The GI50 in [7] was 35.7 µM and 33 µM. Also, the TGI in [1] was 78.2 µM; in [2], 82.8 µM and 75.5 µM; in test [3] it was over 200 µM; in [4], 94.3 µM; in test [5], 89.3 µM; in test [6] it was 93 µM. The same molecule displayed a TGI in test [7] of 83.7 µM.

As for `CCOc1ccc(N2C(N)=NC(N)=NC2(C)C)cc1`, the GI50 in test [1] was over 100 µM; in test [2], over 100 µM; in test [3], over 100 µM; in test [4] it was 71.9 µM; in test [5], 45.7 µM; in test [6], 38.8 µM. In test [7], the GI50 was over 100 µM. The TGI in test [1], in test [2], in test [3], in test [4], in [5] and in [6] was over 100 µM throughout. In addition, the TGI in test [7] was over 100 µM.

As for `CC(=O)OCC1OC(O[C@@H]2C[C@H]3C(C)(C)[C@H](OC(C)=O)CC[C@]3(C)[C@H]3CC[C@@H]4[C@]5(CC[C@@]4(C)[C@@]32C)O[C@@H]([C@H](O)C(C)(C)O)C[C@@H]5C)C(O)C(O)C1O` (stereo not given in full), the GI50 in test [1] is 5.63 µM; in [2], 10.2 µM; in test [3], 16.4 µM; in test [4], 10.6 µM; in [5], 3.84 µM; in test [6], 8.36 µM. In addition, the GI50 in test [7] is 9.3 µM. Moreover, the TGI came to 18.4 µM in test [1]; 22.3 µM in [2]; 31.1 µM in test [3]; 22.8 µM in test [4]; 14.3 µM in [5]; 22.4 µM in test [6]. The same molecule returned a TGI in test [7] of 25.4 µM.

`C=C(C)[C@@H]1CC[C@]2(C#N)CC[C@]3(C)[C@H](CC[C@@H]4[C@@]5(C)CCCNC(C)(C)[C@@H]5CC[C@]43C)[C@@H]12`: the GI50 in [1] was 1.76 µM; in test [2] it was 1.84 µM; in test [3] it was 1.89 µM; in test [4] it was 1.85 µM; in test [5], 2.7 µM; in [6], 1.92 µM. The GI50 in [7] was 2.01 µM. For the same molecule, the TGI in test [1] came out at 4.05 µM; in [2], 3.38 µM; in test [3], 3.63 µM; in [4], 3.48 µM; in [5] it was 10.7 µM; in test [6] it was 3.78 µM. For the same molecule, in test [7], the TGI is 4.85 µM.

In the case of `O=C1CCC(c2ccccc2)(c2ccccc2)CC1`, the TGI in test [1], in test [2], in [3], in test [4], in test [5] and in test [6] was over 100 µM in each case. For the same molecule, in test [7], the TGI was over 100 µM.

As for `N#CC(C#N)=C/C=C/c1cccc([N+](=O)[O-])c1`, the GI50 in [1] is 1.4 µM; in [2], 1.74 µM; in [3] it was 0.652 µM; in test [4], 1.05 µM; in test [5], 2.09 µM; in test [6], 0.426 µM. Also, in test [7], the GI50 is 0.325 µM. Besides, the TGI in test [1] came out at 6.81 µM; in test [2], 16 µM; in test [3], 5.04 µM; in [4] it was 12.8 µM; in test [5] it was 19.3 µM; in test [6], 2.53 µM. The molecule also returned a TGI in test [7] of 2.75 µM.

For the molecule `CCn1c(-c2cc3ccccc3cc2OC(=O)c2ccccc2)n[nH]c1=S`, the GI50 was 38.3 µM in test [1]; 25.2 µM in [2]; 23.2 µM in test [3]; over 50 µM in test [4]; 19.6 µM in test [5]; over 50 µM in [6]. The GI50 in test [7] was 11.6 µM. In addition, the TGI in test [1], in test [2], in test [3], in [4], in test [5] and in test [6] was over 50 µM throughout. Also, in [7], the TGI was 44.8 µM.

Turning to `COc1cc(C(=O)c2c(-c3ccccc3)oc3ccccc23)cc(OC)c1O`, the GI50 in test [1] is 2.14 µM; in [2], 4.24 µM; in test [3], 0.876 µM; in test [4], 3.15 µM; in test [5] it was 3.47 µM; in test [6], 0.285 µM. In addition, the GI50 in test [7] was 0.898 µM. The TGI in [1] stood at 31.8 µM; in [2], 22.5 µM; in [3], 20 µM; in test [4], 13.6 µM; in [5], 15.7 µM; in test [6] it was 0.777 µM. Further, the TGI in [7] amounted to 8.47 µM.

On to `O=C(Nc1ccc(-c2nc3ccc(NC(=O)c4ccc(Cl)cc4)cc3[nH]2)cc1)c1ccc(Cl)cc1`, for which the GI50 in test [1] is 2.13 µM; in [2], 3.68 µM; in [3], 17 µM; in [4], 2.43 µM; in test [5], 2.11 µM; in [6] it was 2.36 µM. Further, the GI50 in test [7] was 0.0559 µM. For the same molecule, the TGI is 5.01 µM in [1]; 15.4 µM in test [2]; 64.4 µM in test [3]; 7.16 µM in [4]; 5.93 µM in test [5]; 7.14 µM in test [6]. For the same molecule, the TGI in test [7] came out at 7.9 µM.

In the case of `COc1cc([N+](=O)[O-])c2ncccc2c1O`, the GI50 was 27 µM in test [1]; 26.1 µM in test [2]; 13.3 µM in test [3]; 2.32 µM in [4]; 6.54 µM in [5]; 3.53 µM in [6]. Also, the GI50 in test [7] is 2.74 µM. Moreover, the TGI in [1] was over 100 µM; in test [2], over 100 µM; in [3], 86.9 µM; in test [4] it was 5.73 µM; in test [5] it was over 100 µM; in test [6], 14.8 µM. The same molecule came in with a TGI in test [7] of 27.3 µM.

As to `Nc1nc(Cl)cc(NCCCCCCCCCCNc2cc(Cl)nc(N)n2)n1`, the TGI in test [8] and in test [9] was over 100 µM in each case.
